Measurements reported in patent US20110065715A1, “Nogo Receptor Binding Small Molecules to Promote Axonal Growth” (Yale University, priority 2007, published 2011).
Entries after “also recorded” stand apart in the source; their conditions may differ. Read-outs that look alike come from different tables or passages of the source.

How the values were obtained:
[1] = tested on: postnatal day 15 (P15) wild type mouse DRG neurons; assay: Neurite outgrowth, P15 wild type mouse DRG neurons; type: cell-based; settings: 24 hours
Protocol: (§1) However, the inhibition of neurite outgrowth by the compound S is believed to be independent of its interaction with the Nogo receptor-Nogo ligand complex. Dorsal root ganglia (DRG) were removed from wild type or NgR1 knockout mouse pups at postnatal day 15, dissociated by trituration after 30 min incubation in 0.5% collagenase, plated on laminin-coated 96-well tissue culture plates in DMEM with 10% fetal bovine serum and B27. After 24 hours, cells were fixed in 4% formaldehyde in phosphate buffered saline (PBS), washed in PBS, and blocked for 1 hour in PBS with 0.1% triton X-100 and 10% goat serum. The cells were then incubated in rabbit anti-beta-3-tubulin (1:500) in PBS overnight. After washing 3 times, the cells were incubated in Alexa-fluor 488 goat anti-rabbit IgG (1:500) for 6 hrs, washed with PBS, and imaged at 10× with an ImagExpress automated microscope (Molecular Devices, Inc.). Neurite outgrowth was measured with AcuityExpress software (Molecular Devices, Inc.).

[2] = tested on: Nogo receptor:Nogo ligand (Nogo 66) interaction; assay: DELFIA assay of Fc-NgR:Ng66 interaction; type: binding
Protocol: ELISA and DELFIA assays were then performed to evaluate the ability of the small molecules that were identified as “hits” in the AlphaScreens to inhibit the interaction of NgR and Nogo ligand. In the DELFIA Assay, 96 well streptavidin coated plates were blocked overnight with PBS and 10 mg/ml bovine serum albumin (BSA) (200 μl). The wells were then coated for 1.5 hours with sonicated HBH (Hanks Balanced Salt Solution/0.1 M HEPES/1 mg/ml BSA) containing Nogo 66 (B66) (0.5 μl of 10 mM/10 ml HBH) (50 μl) and then washed 4 times with 200 μl of HBH. The solution containing the inhibitor compound (50 μl in HBH) was added along with 1% FcNgR solution in HBH (50 μl), and the solution was incubated for 2 hours. The wells were washed 5 times with HBH. Alkaline phosphatase (AP) conjugated mouse anti-rat antibody (1:2500) was added and the wells were then washed 5 times with DELFIA wash buffer. The Europium (Eu) anti-mouse antibody was then added in Perlin Elmer Assay, buffer (100 μg/ml) (150 μl) and the wells were again washed 5 times with DELFIA wash buffer. The enhancer solution was added (100 μl) and the plate was read with the Perkin Elmer Victor 5 instrument 15 minutes later. (FIG. 10B) The results from the DELFIA assay indicate that compounds HTS08871, KM08071, and 503749, as well as the positive control, NEP33, inhibit the Nogo receptor:Nogo ligand (Nogo 66) interaction. (FIGS. 10D and 11A-C).

[3] = tested on: embryonic day 13 or 14 chick DRG neurons; assay: Neurite outgrowth assay, E13/E14 chick DRG neurons; type: cell-based, chicken; settings: 20 μM
Protocol: To test the ability of the “hit” compounds to promote neurite outgrowth, a neurite outgrowth assay was performed using each of these compounds. Dorsal root ganglia (DRG) were removed from chicken embryos at embryonic day 13 or 14, dissociated by trituration after 30 min incubation in 0.5% collagenase, and plated on laminin-coated 96-well tissue culture plates in DMEM with 10% fetal bovine serum containing 20 μM of the test compound. After two to four hours of incubation, the cells were fixed in 4% formaldehyde in phosphate buffered saline (PBS), washed in PBS, and blocked for 1 hour in PBS with 0.1% triton X-100 and 10% goat serum. The cells were incubated in rabbit anti-beta-3-tubulin (1:500) in PBS overnight and then washed 3 times with PBS. The cells were then incubated in Alexa-fluor 488 goat anti-rabbit IgG (1:500) for 6 hrs, washed with PBS, and imaged at 10× with an ImagExpress automated microscope (Molecular Devices, Inc.). Neurite outgrowth was measured with AcuityExpress software (Molecular Devices, Inc.).

[4] = tested on: postnatal day 15 (P15) NgR1 knockout mouse DRG neurons; assay: Neurite outgrowth, P15 NgR1 knockout mouse DRG neurons; type: cell-based; settings: 24 hours
Protocol: as §1

inhibition of Nogo receptor:Nogo 66 interaction signal, DELFIA [2]: dose dependent signal inhibition | inhibition of Nogo receptor:Nogo 66 interaction signal, DELFIA ([2]; listed as 503749): inhibit
SMILES: N#Cc1ccc(CN2C(=O)CSC2=S)cc1 [S, 4-[(4-oxo-2-thioxo-1,3-thiazolan-3-yl)methyl]benzonitrile]
neurite outgrowth, wild type mice [1]: inhibits neurite outgrowth; also recorded: inhibitory effect | neurite outgrowth compared to the DMSO control ([3]; E13 or E14 chick DRG, two to four hours): inhibited neurite outgrowth | basal neurite outgrowth, E14 chick DRG neurons ([3]; E14): no basal neurite outgrowth | neurite outgrowth, NgR1 knockout mice [4]: inhibits neurite outgrowth; also recorded: inhibitory effect
